# According to ChEMBL document CHEMBL5226282, “TLR2 Agonistic Small Molecules: Detailed Structure-Activity Relationship, Applications, and Future Prospects” (J Med Chem, 2021):
# What was measured:
# Toll-like receptor 2 = Toll-like receptor 2 (Homo sapiens, UniProt O60603); test: Agonist activity at human TLR2 transfected in HEK293 cells; format: cell-based
# Toll-like receptor 1/2 = Toll-like receptor 1/2 (Homo sapiens, UniProt O60603+Q15399); test: Agonist activity at TLR2/TLR1 in human THP-1 cells; format: cell-based
# [1] = molecular target: Toll-like receptor 1/2 (Mus musculus); test: Agonist activity at TLR2/TLR1 in mouse Macrophage cell line
# Chain of Toll-like receptor 1/2 (O60603 whole entry): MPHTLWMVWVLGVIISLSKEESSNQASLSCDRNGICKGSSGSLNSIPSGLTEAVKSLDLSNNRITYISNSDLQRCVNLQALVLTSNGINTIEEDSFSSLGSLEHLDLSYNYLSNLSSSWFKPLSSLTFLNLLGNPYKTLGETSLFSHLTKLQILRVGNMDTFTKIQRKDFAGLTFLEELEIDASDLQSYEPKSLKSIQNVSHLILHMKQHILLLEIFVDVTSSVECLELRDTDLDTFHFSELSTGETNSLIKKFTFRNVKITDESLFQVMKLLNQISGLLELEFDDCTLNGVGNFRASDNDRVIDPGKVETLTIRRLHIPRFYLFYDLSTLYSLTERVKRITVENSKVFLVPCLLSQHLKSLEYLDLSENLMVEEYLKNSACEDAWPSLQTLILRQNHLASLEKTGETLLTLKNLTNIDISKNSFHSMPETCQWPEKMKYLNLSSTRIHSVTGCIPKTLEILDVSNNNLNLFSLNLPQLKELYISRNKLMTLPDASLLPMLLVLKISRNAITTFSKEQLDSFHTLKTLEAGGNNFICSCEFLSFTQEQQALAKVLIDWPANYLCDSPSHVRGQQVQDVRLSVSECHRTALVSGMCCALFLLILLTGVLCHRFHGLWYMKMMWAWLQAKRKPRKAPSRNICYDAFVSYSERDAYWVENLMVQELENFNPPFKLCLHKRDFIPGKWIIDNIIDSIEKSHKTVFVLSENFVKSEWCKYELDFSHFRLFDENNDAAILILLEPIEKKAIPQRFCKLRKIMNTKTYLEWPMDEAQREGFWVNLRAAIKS
# Chain of Toll-like receptor 1/2 (Q15399 whole entry): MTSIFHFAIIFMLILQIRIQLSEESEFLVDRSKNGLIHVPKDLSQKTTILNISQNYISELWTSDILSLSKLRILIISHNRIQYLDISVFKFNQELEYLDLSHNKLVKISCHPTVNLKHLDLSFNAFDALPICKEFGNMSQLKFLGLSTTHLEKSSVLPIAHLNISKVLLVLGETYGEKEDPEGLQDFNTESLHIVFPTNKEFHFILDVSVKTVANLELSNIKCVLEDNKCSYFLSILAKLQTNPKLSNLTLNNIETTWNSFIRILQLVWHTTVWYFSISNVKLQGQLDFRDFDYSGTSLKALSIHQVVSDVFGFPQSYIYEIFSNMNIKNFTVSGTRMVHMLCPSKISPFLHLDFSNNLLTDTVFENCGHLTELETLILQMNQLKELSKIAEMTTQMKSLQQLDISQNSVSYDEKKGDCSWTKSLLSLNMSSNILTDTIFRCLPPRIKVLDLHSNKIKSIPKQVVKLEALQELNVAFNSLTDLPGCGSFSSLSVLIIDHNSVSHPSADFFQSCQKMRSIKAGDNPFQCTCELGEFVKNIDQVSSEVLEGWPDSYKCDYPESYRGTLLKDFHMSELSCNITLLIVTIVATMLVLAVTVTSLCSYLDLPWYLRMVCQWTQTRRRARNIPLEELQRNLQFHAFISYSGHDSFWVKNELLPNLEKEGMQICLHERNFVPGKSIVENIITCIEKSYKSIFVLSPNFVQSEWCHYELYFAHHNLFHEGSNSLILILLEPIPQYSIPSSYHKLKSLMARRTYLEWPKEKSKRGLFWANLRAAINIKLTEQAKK
# Chain of Toll-like receptor 2 (O60603 whole entry): as the sequence (O60603 whole entry) above
EC50 (Toll-like receptor 2) [nM],EC50 (Toll-like receptor 1/2) [nM],EC50 [1] [nM],SMILES,further results
900,–,–,CCCCCCCCCCCC(=O)OC[C@H](CSC[C@@H](N)C(=O)NCCOCCOCCOCCC(=O)O)OC(=O)CCCCCCCCCCC,–
1290,–,–,CCCCCCCCCCCC(=O)OC[C@H](CSC[C@@H](N)C(=O)NCCOCCOCCN)OC(=O)CCCCCCCCCCC,–
410,–,–,CCCCCCCCCCCC(=O)OC[C@H](CSC[C@@H](N)C(=O)NCCc1ccc(OCCCP(=O)(O)O)cc1)OC(=O)CCCCCCCCCCC,–
1220,–,–,CCCCCCCCCCCC(=O)OC[C@H](CSC[C@@H](N)C(=O)NCCCCCCN)OC(=O)CCCCCCCCCCC,–
190,–,–,CCCCCCCCCCCC(=O)OC[C@H](CSC[C@@H](N)C(=O)NC(C)CCC(C)C)OC(=O)CCCCCCCCCCC (stereo partly specified),–
270,–,–,CCCCCCCCCCCC(=O)OC[C@H](CSC[C@@H](N)C(=O)NCCOCCOCCOCCP(=O)(O)O)OC(=O)CCCCCCCCCCC,–
257,–,–,CCCCCCCCCCCC(=O)OC[C@H](CSC[C@@H](N)C(=O)NC(C)CCN(CC)CC)OC(=O)CCCCCCCCCCC (stereo partly specified),–
14,–,–,CCCCCCCCCCCC(=O)OC[C@H](CSC[C@@H](N)C(=O)NCCOCCC(F)(F)P(=O)(O)O)OC(=O)CCCCCCCCCCC,–
8170,–,–,CCCCCCCCCCCC(=O)OC[C@H](CSC[C@@H](N)C(=O)NCCc1ccc(OCCC(C)C)cc1)OC(=O)CCCCCCCCCCC,–
1220,–,–,CCCCCCCCCCCC(=O)OC[C@H](CSC[C@@H](N)C(=O)NCCCCCN)OC(=O)CCCCCCCCCCC,–
6500,–,–,CCCCCCCCCCCC(=O)OC[C@H](CSC[C@@H](N)C(=O)N[C@@H](CC)COCC(=O)O)OC(=O)CCCCCCCCCCC,–
1040,–,–,CCCCCCCCCCCC(=O)OC[C@H](CSC[C@@H](N)C(=O)NCCCCN)OC(=O)CCCCCCCCCCC,–
498,–,–,CCCCCCCCCCCC(=O)OC[C@H](CSC[C@@H](N)C(=O)NCCCOCCOCCOCCCN)OC(=O)CCCCCCCCCCC,–
31,–,–,CCCCCCCCCCCC(=O)OC[C@H](CSC[C@@H](N)C(=O)NCCOCCOCCC(F)(F)P(=O)(O)O)OC(=O)CCCCCCCCCCC,–
810,–,–,CCCCCCCCCCCC(=O)OC[C@H](CSC[C@@H](N)C(=O)NCCCOCCCCOCCCCN)OC(=O)CCCCCCCCCCC,–
119,–,–,CCCCCCCCCCCC(=O)OC[C@H](CSC[C@@H](N)C(=O)NCCOCCP(=O)(O)O)OC(=O)CCCCCCCCCCC,–
61,–,–,CCCCCCCCCCCC(=O)OC[C@H](CSC[C@@H](N)C(=O)NCCOCCOS(=O)(=O)O)OC(=O)CCCCCCCCCCC,–
5560,–,–,CCCCCCCCCCCC(=O)OC[C@H](CSC[C@@H](N)C(=O)NCCCS(=O)(=O)O)OC(=O)CCCCCCCCCCC,–
30700,–,–,CCCCCCCCCCCC(=O)OC[C@H](CSC[C@@H](N)C(=O)NCCCC(C)(C)CO)OC(=O)CCCCCCCCCCC,–
15500,–,–,CCCCCCCCCCCC(=O)OC[C@H](CSC[C@@H](N)C(=O)NC(C)(C)CO)OC(=O)CCCCCCCCCCC,–

# The next lines start with the molecule.
SMILES,EC50 (Toll-like receptor 2) [nM],EC50 (Toll-like receptor 1/2) [nM],EC50 [1] [nM],further results
CCCCCCCCCCCC(=O)OC[C@H](CSC[C@@H](N)C(=O)NCCc1ccc(Oc2ccccc2)cc1)OC(=O)CCCCCCCCCCC,4080,–,–,–
CCCCCCCCCCCC(=O)OC[C@H](CSC[C@@H](N)C(=O)N[C@@H](CO)C(=O)NCCOCCOCCOCCC(=O)O)OC(=O)CCCCCCCCCCC,4940,–,–,–
CCCCCCCCCCCCCCCC(=O)OCC(CSC[C@@H](N)C(=O)N[C@@H](CO)C(=O)N[C@@H](CC(N)=O)C(=O)N[C@@H](CC(C)C)C(=O)N[C@H](C(=O)N[C@H](C(=O)N[C@@H](C)C(=O)N[C@@H](CO)C(=O)N[C@@H](CCC(=O)O)C(=O)N[C@H](C(=O)N[C@@H](CC(C)C)C(=O)O)[C@@H](C)O)[C@@H](C)CC)[C@@H](C)CC)OC(=O)CCCCCCCCCCCCCCC (stereo partly specified),–,–,–,EC50 (Toll-like receptor 2; hek293): 270 nM
CCCCCCCCCCCC(=O)OC[C@H](CSC[C@@H](N)C(=O)NCCc1ccc(OCCOCCO)cc1)OC(=O)CCCCCCCCCCC,15300,–,–,–
CCCCCCCCCCCC(=O)OC[C@H](CSC[C@@H](N)C(=O)NCCc1cccc(O)c1)OC(=O)CCCCCCCCCCC,> 21000,–,–,–
CCCCCCCCCCCC(=O)OC[C@H](CSC[C@@H](N)C(=O)NCCOCCOCCOCCOCCP(=O)(O)O)OC(=O)CCCCCCCCCCC,38,–,–,–
CCCCCCCCCCCC(=O)OC[C@H](CSC[C@@H](N)C(=O)NC(Cc1ccccc1)c1ccccc1)OC(=O)CCCCCCCCCCC (stereo partly specified),68,–,–,–
O=C(NCCc1ccc(F)cc1)[C@@H]1CN(C(=O)[C@@H]2CCC[C@H](C(=O)N3C[C@@H](C(=O)NCCc4ccc(F)cc4)[C@H](C(=O)NCCc4ccc(F)cc4)C3)C2)C[C@H]1C(=O)NCCc1ccc(F)cc1,–,> 5000,> 5000,–
O=C(NCCc1ccc(F)cc1)[C@@H]1CN(C(=O)[C@H]2CC[C@@H](C(=O)N3C[C@@H](C(=O)NCCc4ccc(F)cc4)[C@H](C(=O)NCCc4ccc(F)cc4)C3)CC2)C[C@H]1C(=O)NCCc1ccc(F)cc1,–,> 5000,> 5000,–
O=C(O)[C@@H]1CN(C(=O)c2ccc(C(=O)N3C[C@@H](C(=O)N[C@H]4C[C@@H]4c4ccccc4)[C@H](C(=O)N[C@@H]4C[C@H]4c4ccccc4)C3)cc2)C[C@H]1C(=O)N[C@H]1C[C@@H]1c1ccccc1,–,200,> 5000,–
CCCCNC(=O)[C@@H]1CN(C(=O)c2ccc(C(=O)N3C[C@@H](C(=O)N[C@H]4C[C@@H]4c4ccccc4)[C@H](C(=O)N[C@@H]4C[C@H]4c4ccccc4)C3)cc2)C[C@H]1C(=O)N[C@H]1C[C@@H]1c1ccccc1,–,2,30,–
O=C(N[C@H]1C[C@@H]1c1ccccc1)[C@@H]1CN(C(=O)c2cc(Cl)c(C(=O)N3C[C@@H](C(=O)N[C@H]4C[C@@H]4c4ccccc4)[C@H](C(=O)N[C@H]4C[C@@H]4c4ccccc4)C3)cc2Cl)C[C@H]1C(=O)N[C@H]1C[C@@H]1c1ccccc1,–,360,> 5000,–
O=C(N[C@H]1C[C@@H]1c1ccccc1)[C@@H]1CN(C(=O)c2c(F)c(F)c(C(=O)N3C[C@@H](C(=O)N[C@H]4C[C@@H]4c4ccccc4)[C@H](C(=O)N[C@H]4C[C@@H]4c4ccccc4)C3)c(F)c2F)C[C@H]1C(=O)N[C@H]1C[C@@H]1c1ccccc1,–,110,> 5000,–
CCCCCCNC(=O)[C@@H]1CN(C(=O)c2ccc(C(=O)N3C[C@@H](C(=O)NCCCCCC)[C@H](C(=O)N[C@@H]4C[C@H]4c4ccccc4)C3)cc2)C[C@H]1C(=O)N[C@@H]1C[C@H]1c1ccccc1,–,0.8,1100,–
C#CCNc1cc(C(=O)N2C[C@@H](C(=O)N[C@H]3C[C@@H]3c3ccccc3)[C@H](C(=O)N[C@H]3C[C@@H]3c3ccccc3)C2)ccc1C(=O)N1C[C@@H](C(=O)N[C@H]2C[C@@H]2c2ccccc2)[C@H](C(=O)N[C@H]2C[C@@H]2c2ccccc2)C1,–,15,750,–
O=C(N[C@H]1C[C@@H]1c1ccccc1)[C@@H]1CN(C(=O)C#CC(=O)N2C[C@@H](C(=O)N[C@H]3C[C@@H]3c3ccccc3)[C@H](C(=O)N[C@H]3C[C@@H]3c3ccccc3)C2)C[C@H]1C(=O)N[C@H]1C[C@@H]1c1ccccc1,–,> 5000,> 5000,–
O=C(NCCc1ccc(F)cc1)[C@@H]1CN(C(=O)c2ccc(-c3ccc(C(=O)N4C[C@@H](C(=O)NCCc5ccc(F)cc5)[C@H](C(=O)NCCc5ccc(F)cc5)C4)cc3)cc2)C[C@H]1C(=O)NCCc1ccc(F)cc1,–,> 5000,> 5000,–
CCCCNC(=O)[C@@H]1CN(C(=O)c2ccc(C(=O)N3C[C@@H](C(=O)N[C@H]4C[C@@H]4c4ccccc4)[C@H](C(=O)N[C@@H]4C[C@H]4c4ccccc4)C3)cc2)C[C@H]1C(=O)NCCCC,–,0.28,60,–
CCCCCCCCNC(=O)[C@@H]1CN(C(=O)c2ccc(C(=O)N3C[C@@H](C(=O)N[C@H]4C[C@@H]4c4ccccc4)[C@H](C(=O)N[C@@H]4C[C@H]4c4ccccc4)C3)cc2)C[C@H]1C(=O)NCCCCCCCC,–,1,1000,–
